Marks after values point to notes of the source that are not given here.
Assay: Pharmacokinetic study in rats after oral HAR and MEM alone and in combination (plasma, UPLC-MS/MS, non-compartmental)
Settings: rat plasma, n = 8, mean ± SD
Protocol: The analytes were separated on an ACQUITY UPLC BEH C18 column (2.1 mm × 50 mm, 1.7 μm, Waters, Milford, USA). […] The flow rate was 0.3 mL/min. The column and sample-tray temperature were kept at 40 °C and 4 °C, respectively. The injection volume was 5.0 μL using a partial loop with needle over fill mode.
The compound dependent parameters used for analysis were summarized in Supplementary materials Table S1.
A rapid and convenient precipitation method was used to prepare the plasma samples. A 100 μL aliquot of plasma sample was spiked with 100 μL of IS solution and 300 μL of methanol in a 1.5 mL centrifuge tube; subsequently, the mixtures were vortex-mixed for 30.0 s and then centrifuged at 1.5 × 10^4× g for 10 min at 4 °C. A 100 μL aliquot of supernatant was combined with 25.0 μL of 0.1% formic acid water in a clean centrifuge tube and then vortex-mixed for 30 s. A 5.0 μL aliquot of mixture was injected into the UPLC-MS/MS system for analysis.
Fifty-six pathogen-free male adult rats were randomly divided into seven groups with eight rats in each group for pharmacokinetic study. […] One group was intragastrically administered with MEM hydrochloride 5.0 mg/kg dissolved in ultrapure water, namely, MEM group. […] The blood samples were immediately centrifuged at 4.0 × 10^3× g at […] for 10 min, and 100 μL of the supernatant plasma was transferred into another new 1.5 mL centrifuge tube and stored at −20 °C until UPLC-MS/MS analysis.
All standard curves and quantitative data were processed by Agilent Mass Hunter Quantitative Analysis Workstation Software. […] All the pharmacokinetic parameters were processed using the non-compartmental pharmacokinetics data analysis software program PK solutions 2.0^TM (Summit Research Services, USA). […] The AUC(0-t) was obtained by the linear/logarithmic trapezoidal rule, and the area under the plasma concentration versus time curve from zero to infinity (AUC(0-∞)) was calculated by means of the trapezoidal rule with extrapolation to infinity with a terminal elimination rate constant. The Pearson correlation coefficient analysis was processed by IBM SPSS Statistics Version 21. A statistical analysis was performed using analysis of variance with α = 0.05 as the minimal level of significance.

[1] = HOL as metabolite after oral HAR 40.0 mg/kg + MEM 5.0 mg/kg (HAR-M + MEM)
[2] = HOL as metabolite after oral HAR 40.0 mg/kg alone (HAR-M)
[3] = HOL as metabolite after oral HAR 80.0 mg/kg + MEM 5.0 mg/kg (HAR-H + MEM)
[4] = HOL as metabolite after oral HAR 80.0 mg/kg alone (HAR-H)

Substance: harmol [HOL]
- AUC(0-t) of HOL [1]: 35.5 ± 15.3 ng·h/mL
- AUC(0-∞) of HOL [1]: 43.1 ± 21.9 ng·h/mL
- Cmax of HOL [1]: 18.0 ± 5.95 ng/mL
- Ka of HOL [1]: 1.98 ± 1.72 h⁻¹
- Ke of HOL [1]: 0.312 ± 0.271 h⁻¹
- MRT of HOL [1]: 5.52 ± 2.55 h
- T1/2a of HOL [1]: 2.78 ± 4.59 h
- T1/2e of HOL [1]: 3.53 ± 2.19 h
- T1/2d of HOL [1]: 2.05 ± 1.61 h
- Tmax of HOL [1]: 0.229 ± 0.0589 h
- AUC(0-t) of HOL [2]: 27.1 ± 10.8 ng·h/mL
- AUC(0-∞) of HOL [2]: 29.6 ± 11.3 ng·h/mL
- Cmax of HOL [2]: 10.4 ± 2.13 ng/mL
- Ka of HOL [2]: 0.808 ± 1.28 h⁻¹
- Ke of HOL [2]: 0.400 ± 0.133 h⁻¹
- MRT of HOL [2]: 4.44 ± 1.78 h
- T1/2a of HOL [2]: 2.22 ± 1.67 h
- T1/2e of HOL [2]: 1.94 ± 0.712 h
- T1/2d of HOL [2]: 1.89 ± 1.07 h
- Tmax of HOL [2]: 0.198 ± 0.324 h
- AUC(0-t) of HOL [3]: 158 ± 59.9 ^bbb ng*h/mL
- AUC(0-∞) of HOL [3]: 327 ± 140 ^bbb ng*h/mL
- Cmax of HOL [3]: 40.4 ± 10.9 ^bbb ng/mL
- Ka of HOL [3]: 0.864 ± 1.00 h⁻¹
- Ke of HOL [3]: 0.0899 ± 0.0912 ^b /h
- MRT of HOL [3]: 23.5 ± 19.3 ^b h
- T1/2a of HOL [3]: 2.15 ± 2.05 h
- T1/2e of HOL [3]: 17.2 ± 14.7 ^b h
- T1/2d of HOL [3]: 3.48 ± 4.35 h
- Tmax of HOL [3]: 2.39 ± 3.52 h
- AUC(0-t) of HOL [4]: 57.8 ± 19.3 ^aaa ng*h/mL
- AUC(0-∞) of HOL [4]: 69.7 ± 23.1 ^aaa ng*h/mL
- Cmax of HOL [4]: 32.4 ± 16.5 ^aa ng/mL
- Ka of HOL [4]: 1.17 ± 1.96 h⁻¹
- Ke of HOL [4]: 0.226 ± 0.0896 ^aa /h
- MRT of HOL [4]: 6.04 ± 2.12 h
- T1/2a of HOL [4]: 2.02 ± 1.52 h
- T1/2e of HOL [4]: 3.57 ± 1.50 ^a h
- T1/2d of HOL [4]: 2.02 ± 1.72 h
- Tmax of HOL [4]: 0.271 ± 0.159 h
